Legend:
[1] = biological target: T1, HDAC1 enzyme (Homo sapiens, UniProt Q13547); assay: In vitro HDAC assay for determination of IC50 values (BIOMOL fluorescent-based HDAC activity assay); type: biochemical; conditions: recombinant GST-HDAC1, 500 uM Flur de lys substrate, room temperature 2 h; read-out: IC50 (HDAC 1)
T1 construct: Amplification of human HDAC1 coding region from this cDNA library was cloned separately into the baculovirus expression pDEST20 vector; made in house; host or cells: SF9 insect cells (baculovirus, pDEST20 vector)
T1 sequence (Q13547 whole entry): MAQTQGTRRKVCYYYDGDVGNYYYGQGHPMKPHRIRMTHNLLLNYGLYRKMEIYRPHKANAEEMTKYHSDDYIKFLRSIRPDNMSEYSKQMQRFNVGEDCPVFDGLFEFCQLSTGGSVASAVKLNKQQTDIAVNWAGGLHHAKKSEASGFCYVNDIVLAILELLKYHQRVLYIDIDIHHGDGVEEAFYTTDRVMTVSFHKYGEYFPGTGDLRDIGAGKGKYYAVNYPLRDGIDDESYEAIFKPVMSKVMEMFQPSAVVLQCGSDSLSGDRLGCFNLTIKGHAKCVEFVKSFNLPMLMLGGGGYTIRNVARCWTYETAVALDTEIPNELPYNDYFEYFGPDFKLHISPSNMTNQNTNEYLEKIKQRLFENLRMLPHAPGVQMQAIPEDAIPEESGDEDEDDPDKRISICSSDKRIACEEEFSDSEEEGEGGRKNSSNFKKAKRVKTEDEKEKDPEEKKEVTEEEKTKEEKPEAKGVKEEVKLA
Description: Human cDNA library was prepared using cultured SW620 cells. Amplification of human HDAC1 coding region from this cDNA library was cloned separately into the baculovirus expression pDEST20 vector (GATEWAY Cloning Technology, Invitrogen Pte Ltd). The pDEST20-HDAC1 construct was confirmed by DNA sequencing. Recombinant baculovirus was prepared using the Bac-To-Bac method following the manufacturer's instruction (Invitrogen Pte Ltd).
Expression of GST-HDAC1 was done by infecting SF9 cells (Invitrogen Pte Ltd) with pDEST20-HDAC1 baculovirus at MOI=1 for 48 h. Soluble cell lysate was incubated with pre-equilibrated Glutathione Sepharose 4B beads (Amersham) at 4°C for 2 h. The beads were washed with PBS buffer for 3 times. The GST-HDAC1 protein was eluted by elution buffer containing 50 mM Tris, pH8.0, 150mM NaCl, 1% Triton X-100 and 10mM or 20mM reduced Glutathione. The purified GST-HDAC1 protein was dialyzed with HDAC storage buffer containing 10mM Tris, pH7.5, 100mM NaCl and 3mM MgCl2. 20% Glycerol was added to purified GST-HDAC1 protein before storage at -80°C.
The assay has been carried out in 96 well format and the BIOMOL fluorescent-based HDAC activity assay has been applied. The reaction composed of assay buffer, containing 25 mM Tris pH 7.5, 137 mM NaCl, 2.7 mM KCl, 1 mM MgCl2, 1 mg/ml BSA, tested compounds, an appropriate concentration of HDAC1 enzyme, 500 uM Flur de lys generic substrate for HDAC1 enzyme and subsequently was incubated at room temperature for 2 h. Flur de lys Developer was added and the reaction was incubated for 10 min. Briefly, deacetylation of the substrate sensitizes it to the developer, which then generates a fluorophore. The fluorophore is excited with 360 nm light and the emitted light (460 nm) is detected on a fluorometric plate reader (Tecan Ultra Microplate detection system, Tecan Group Ltd.).
The analytical software, Prism 4.0 (GraphPad Software Inc) has been used to generate IC50 from a series of data. IC50 is defined as the concentration of compound required for 50% inhibition of HDAC enzyme activity.

[2] = test system: Colo205 cells; assay: Cell-based proliferation assay for determination of GI50 values (CyQUANT); design: species or system Human; conditions: Homo sapiens, COLO 205, compound treatment 96 h, concentration for 50% inhibition of cell growth, read-out: Gl50 (Colo205)
Description: Human cancer cell lines (e.g. Colo205) were obtained from ATCC. Colo205 cells were cultivated in RPMI 1640 containing 2 mM L-Glutamine, 5% FBS, 1.0 mM Na Pyruvate. Colo205 cells were seeded in 96-wells plate at 5000 cells per well. The plates were incubated at 37°C, 5% CO2, for 24 h. Cells were treated with compounds at various concentrations for 96 h. Cell growth was then monitored using CyQUANT® cell proliferation assay (Invitrogen Pte Ltd). Dose response curves were plotted to determine Gl50 values for the compounds using XL-fit (ID Business Solution, Emeryville, CA). Gl50 is defined as the concentration of compound required for 50% inhibition of cell growth.

Compound	IC50 [1]	IC50 [2]
CCCN(CC)Cc1c(C)nc2cc(C=CC(=O)NO)ccn12 [Compound 30, 3-{3-[(Ethyl-propyl-amino)-methyl]-2-methyl-imidazo[1,2-a]pyridin-7-yl}-N-hydroxy-acrylamide]	540 nM	4600 nM
CCC(CC)CN(CC)Cc1c(C)nc2cc(C=CC(=O)NO)ccn12 [Compound 31, 3-(3-{[Ethyl-(2-ethyl-butyl)-amino]-methyl}-2-methyl-imidazo[1,2-a]pyridin-7-yl)-N-hydroxy-acrylamide]	10 nM	50 nM
CCCN(Cc1c(C(C)(C)C)nc2cc(C=CC(=O)NO)ccn12)C(C)C [Compound 32, 3-{2-tert-Butyl-3-[(isopropyl-propyl-amino)-methyl]-imidazo[1,2-a]pyridin-7-yl}-N-hydroxy-acrylamide]	300 nM	2500 nM
CN(Cc1c(C(C)(C)C)nc2cc(/C=C/C(=O)NO)ccn12)CC(C)(C)C [Compound 33, 3-(-tert-Butyl-3-{[(2,2-dimethyl-propyl)-methyl-amino]-methyl}-imidazo[1,2-a]pyridin-7-yl)-N-hydroxy-acrylamide]	780 nM	6300 nM
CCCCN(C)Cc1c(C(C)(C)C)nc2cc(C=CC(=O)NO)ccn12 [Compound 34, 3-{2-tert-Butyl-3-[(butyl-methyl-amino)-methyl]-imidazo[1,2-a]pyridin-7-yl}-N-hydroxy-acrylamide]	220 nM	1700 nM
CCC(CC)CN(C)Cc1c(C(C)(C)C)nc2cc(C=CC(=O)NO)ccn12 [Compound 35, 3-(2-tert-Butyl-3-{[(2-ethyl-butyl)-methyl-amino]-methyl}-imidazo[1,2-a]pyridin-7-yl)-N-hydroxy-acrylamide]	410 nM	2300 nM
CC(C)CCN(C)Cc1c(C(C)(C)C)nc2cc(C=CC(=O)NO)ccn12 [Compound 36, 3-(2-tert-Butyl-3-{[methyl-(3-methyl-butyl)-amino]-methyl}-imidazo[1,2-a]pyridin-7-yl)-N-hydroxy-acrylamide]	350 nM	900 nM
CN(CCC(C)(C)C)Cc1c(C(C)(C)C)nc2cc(C=CC(=O)NO)ccn12 [Compound 37, 3-(2-tert-Butyl-3-{[(3,3-dimethyl-butyl)-methyl-amino]-methyl}-imidazo[1,2-a]pyridin 7-yl)-N-hydroxy-acrylamide]	270 nM	730 nM
CCCN(Cc1c(C)nc2cc(C=CC(=O)NO)ccn12)CC(C)(C)C [Compound 38, 3-(3-{[(2,2-Dimethyl-propyl)-propyl-amino]-methyl}-2-methyl-imidazo[1,2-a]pyridin-7-yl)-N-hydroxy-acrylamide]	130 nM	700 nM
CCN(Cc1c(C)nc2cc(C=CC(=O)NO)ccn12)CC(C)(C)C [Compound 39, 3-(3-{[(2,2-Dimethyl-propyl)-ethyl-amino]-methyl}-2-methyl-imidazo[1,2-a]pyridin-7-yl)-N-hydroxy-acrylamide]	50 nM	600 nM
CCCCc1nc2cc(C=CC(=O)NO)ccn2c1CN(CC)CC(C)(C)C [Compound 43, 3-(2-Butyl-3-{[(2,2-dimethyl-propyl)-ethyl-amino]-methyl}-imidazo[1,2-a]pyridin-7-yl)-N-hydroxy-acrylamide]	160 nM	950 nM
CCCCCc1nc2cc(C=CC(=O)NO)ccn2c1CNC(C)(C)C [Compound 53, 3-[3-(tert-Butylamino-methyl)-2-pentyl-imidazo[1,2-a]pyridin-7-yl]-N-hydroxy-acrylamide]	20 nM	70 nM
CCCCCc1nc2cc(C=CC(=O)NO)ccn2c1CN(CC)CCC(C)(C)C [Compound 56, 3-(3-{[(3,3-Dimethyl-butyl)-ethyl-amino]-methyl}-2-pentyl-imidazo[1,2-a]pyridin-7-yl)-N-hydroxy-acrylamide]	30 nM	150 nM
CC(C)Cc1nc2cc(C=CC(=O)NO)ccn2c1CNC(C)(C)C [Compound 58, 3-[3-(tert-Butylamino-methyl)-2-isobutyl-imidazo[1,2-a]pyridin-7-yl]-N-hydroxy-acrylamide]	50 nM	210 nM
CCc1nc2cc(C=CC(=O)NO)ccn2c1CNC(C)(C)C [Compound 62, 3-[3-(tert-Butylamino-methyl)-2-ethyl-imidazo[1,2-a]pyridin-7-yl]-N-hydroxy-acrylamide]	30 nM	260 nM

Second part, the molecule after the results:

IC50 [1]	IC50 [2]	Compound
90 nM	570 nM	CCCCc1nc2cc(C=CC(=O)NO)ccn2c1CN(CC)CC(C)C [Compound 40, 3-(2-Butyl-3-[(ethyl-isobutyl-amino)-methyl]-imidazo[1,2-a]pyridin-7-yl}-N-hydroxy-acrylamide]
20 nM	90 nM	CCCCc1nc2cc(C=CC(=O)NO)ccn2c1CN(CC)CCC(C)C [Compound 42, 3-(2-Butyl-3-{[ethyl-(3-methyl-butyl)-amino]-methyl}-imidazo[1,2-a]pyridin-7-yl)-N-hydroxy-acrylamide]
80 nM	490 nM	CCCCc1nc2cc(C=CC(=O)NO)ccn2c1CN(CC)CC(C)CCC (centres unmarked) [Compound 44, 3-(2-Butyl-3-{[ethyl-(2-methyl-pentyl)-amino]-methyl}-imidazo[1,2-a]pyridin-7-yl)-N-hydroxy-acrylamide]
30 nM	140 nM	CCCCc1nc2cc(C=CC(=O)NO)ccn2c1CN(CC)CCC(C)(C)C [Compound 45, 3-(2-Butyl-3-{[(3,3-dimethyl-butyl)-ethyl-amino]-methyl)-imidazo[1,2-a]pyridin-7-yl)-N-hydroxy-acrylamide]
150 nM	390 nM	CCCCc1nc2cc(C=CC(=O)NO)ccn2c1CN(CC)CC(CC)CC [Compound 46, 3-(2-Butyl-3-{[ethyl-(2-ethyl-butyl)-amino]-methyl}-imidazo[1,2-a]pyridin-7-yl)-N-hydroxy-acrylamide]
200 nM	530 nM	CCCCc1nc2cc(C=CC(=O)NO)ccn2c1CN(CC)CCC(C)CC(C)(C)C (centres unmarked) [Compound 47, 3-(2-Butyl-3-{[ethyl-(3,5,5-trimethyl-hexyl)-amino]-methyl}-imidazo[1,2-a]pyridin-7-yl)-N-hydroxy-acrylamide]
30 nM	80 nM	CCCc1nc2cc(C=CC(=O)NO)ccn2c1CN(CC)CCC(C)C [Compound 51, 3-(3-{[Ethyl-(3-methyl-butyl)-amino]-methyl}-2-propyl-imidazo[1,2-a]pyridin-7-yl)-N-hydroxy-acrylamide]
20 nM	70 nM	CCCc1nc2cc(C=CC(=O)NO)ccn2c1CN(CC)CCC(C)(C)C [Compound 52, 3-(3-{[(3,3-Dimethyl-butyl)-ethyl-amino]-methyl}-2-propyl-imidazo[1,2-a]pyridin-7-yl)-N-hydroxy-acrylamide]
40 nM	150 nM	CCCCCc1nc2cc(C=CC(=O)NO)ccn2c1CN(CC)CCCC [Compound 54, 3-{3-[(Butyl-ethyl-amino)-methyl]-2-pentyl-imidazo[1,2-a]pyridin-7-yl}-N-hydroxy-acrylamide]
30 nM	140 nM	CCCCCc1nc2cc(C=CC(=O)NO)ccn2c1CN(CC)CCC(C)C [Compound 55, 3-(3-{(Ethyl-(3-methyl-butyl)-amino]-methyl}-2-pentyl-imidazo[1,2-a]pyridin-7-yl)-N-hydroxy-acrylamide]
40 nM	160 nM	CCCCN(CC)Cc1c(CCC)nc2cc(C=CC(=O)NO)ccn12 [Compound 57, 3-{3-[(Butyl-ethyl-amino)-methyl]-2-propyl-imidazo[1,2-a]pyridin-7-yl}-N-hydroxy-acrylamide]
40 nM	150 nM	CCCCN(CC)Cc1c(CC(C)C)nc2cc(C=CC(=O)NO)ccn12 [Compound 59, 3-{3-[(Butyl-ethyl-amino)-methyl]-2-isobutyl-imidazo[1,2-a]pyridin-7-yl}-N-hydroxy-acrylamide]
30 nM	170 nM	CCN(CCC(C)(C)C)Cc1c(CC(C)C)nc2cc(/C=C/C(=O)NO)ccn12 [Compound 61]

Reference: patent EP2064211B1, “IMIDAZO[1,2-A]PYRIDINE HYDROXYMATE COMPOUNDS THAT ARE INHIBITORS OF HISTONE DEACETYLASE” (MEI Pharma, Inc., priority 2006, dated 2008)
